Counter-ions that a name gives are not always drawn.
target: T1, protein farnesyltransferase (Rattus norvegicus, UniProt Q02293+Q04631); experiment: in vitro inhibition of protein farnesyltransferase (scintillation proximity assay, biotin-K Ras B fragment); type: biochemical; conditions: at 1 × 10^-5 M
T1 construct: Rat brain protein farnesyltransferase activity is measured; from tissue; host or cells: rat brain; purified according to Reiss et al., Cell 62:81-88 (1990), steps one through three
Method in brief: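 Scintillation proximity read-out of farnesylation, using a biotinylated K Ras B fragment (0.1 mM final) in place of biotin-lamin. Enzyme purified from rat brain; results given as % inhibition.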

Compound	inhibition at 10 µM [%]
CSCC[C@H](NC(=O)c1ccc(NC(=O)[C@@H]2C[C@@H](O)CN2)cc1-c1ccccc1)C(=O)O [Example 952, N-[4-(4-hydroxyprolinylamino)-2-phenylbenzoyl]methionine]	> 50
COc1ccc(NCc2ccc(C(=O)N[C@@H](CCSC)C(=O)O)c(-c3ccccc3)c2)cc1 [Example 690]	61
CSCC[C@H](NC(=O)c1ccc(CNCCCCc2ccccc2)cc1-c1ccccc1)C(=O)O [Example 718]	40
CSCC[C@H](NC(=O)c1ccc(CNc2ccc(C)c(C)c2)cc1-c1ccccc1)C(=O)O [Example 704]	67

same assay, conditions: at 1 × 10^-6 M

Compound	% inhibition of farnesyltransferase [%]
CSCC[C@H](NC(=O)c1ccc(SCCc2ccccc2)cc1-c1ccccc1C)C(=O)O [Example 498]	98
CSCC[C@H](NC(=O)c1ccc(OC/C=C(\C)CCC=C(C)C)cc1-c1ccccc1C)C(=O)O [Example 546]	97
Cc1ccccc1-c1cc(COCc2ccccc2)ccc1C(=O)N[C@@H](CCS(C)(=O)=O)C(=O)O [Example 576]	88
Cc1ccccc1-c1cc(CCc2ccc(Oc3ccccc3)cc2)ccc1C(=O)N[C@@H](CC[S+](C)[O-])C(=O)O (some centres unmarked) [Example 463]	91
CSCC[C@H](NC(=O)c1ccc(OCCC2CCCCC2)cc1-c1ccccc1C)C(=O)[O-].[Li+] [Example 552]	88
CSCC[C@H](NC(=O)c1ccc(/C=C/c2ccc(Oc3ccccc3)nn2)cc1-c1ccccc1C)C(=O)O [Example 810]	89
N-[4-(3-furan-2-yl-2-phenylprop-2-en-1-ylaminomethyl)-2-(2-methylphenyl)benzoyl]methionine lithium salt [Example 537]	97
CSCC[C@H](NC(=O)c1ccc(COCc2ccc3ccccc3c2)cc1-c1ccccc1C)C(=O)[O-].[Li+] [Example 583]	98
Cc1ccccc1-c1cc(CN(C2CC2)C2(Cc3ccccc3)CCC2)ccc1C(=O)N[C@@H](CCS(C)(=O)=O)C(=O)O [Example 333]	99
Cc1ccccc1-c1cc(CCc2ccccc2Oc2ccccc2)ccc1C(=O)N[C@@H](CC[S+](C)[O-])C(=O)O (some centres unmarked) [Example 456]	81
CSCC[C@H](NC(=O)c1ccc(CN(C2CC2)C(C)(C)Cc2ccccc2)cc1-c1ccccc1C)C(=O)O [Example 315]	93

same assay, conditions: at 1 × 10^-6 M; read-out: % inhibition of farnesyltransferase

Compound	inhibition at 1 µM [%]
CSCC[C@H](NC(=O)c1ccc(NCC(CO)(Cc2ccccc2)Cc2ccccc2)cc1-c1ccccc1C)C(=O)O [Example 475, N-[4-N-(2,2-dibenzyl-3-hydroxypropyl)amino-2-(2-methylphenyl)benzoyl]methionine sodium salt]	21
CNCC(=O)Nc1ccc(C(=O)N[C@@H](CCSC)C(=O)O)c(-c2ccccc2)c1 [Example 749]	84
CSCC[C@H](NC(=O)c1ccc(NCC2CNCCN2)cc1-c1ccccc1)C(=O)O (some centres unmarked) [Example 286, [4-(2-piperazinylmethylamino)-2-phenylbenzoyl]methionine]	84
CSCC[C@H](NC(=O)c1ccc(CN(C)C(C)(C)Cc2ccccc2)cc1-c1ccccc1C)C(=O)O [Example 982, N-[4-(N-Methyl-N-(1,1-dimethyl-2-phenylethyl)aminomethyl)-2-(2-methylphenyl)-benzoyl]methionine lithium salt]	64
CSCC[C@H](NC(=O)c1ccc(NC(=O)OCc2cncs2)cc1-c1ccccc1C)C(=O)O [Example 902, N-[4-N-(thiazol-5-ylmethoxycarbonyl)amino-2-(2-methylphenylbenzoyl]methioninelithium salt]	85
CSCC[C@H](NC(=O)c1ccc(CN(CCc2ccccc2)Cc2ccccc2)cc1-c1ccccc1C)C(=O)O [Example 513, N-[4-N-(2-phenylethyl)-N-benzylaminomethyl-2-(2-methylphenyl)benzoyl]methionine lithium salt]	96
CSCC[C@H](NC(=O)c1ccc(CNC(CC2CCCCC2)C(O)C(O)CC(C)C)cc1-c1ccccc1C)C(=O)O (some centres unmarked) [Example 528]	99
CSCC[C@H](NC(=O)c1ccc(CNc2cccc(C(N)=O)c2)cc1-c1ccccc1)C(=O)O [Example 682]	31
CSCC[C@H](NC(=O)c1ccc(CN[C@@H](CC2CCCCC2)[C@@H](O)[C@@H](O)CC(C)C)cc1-c1ccccc1)C(=O)O [Example 716]	69
CSCC[C@H](NC(=O)c1ccc(NCC(CO)Cc2ccccc2)cc1-c1ccccc1C)C(=O)O (some centres unmarked) [Example 476, N-[4-N-(2-benzyl-3-hydroxypropyl)amino-2-(2-methylphenyl)benzoyl]methioninesodium salt]	91
CSCC[C@H](NC(=O)c1ccc(CNc2ccccc2Oc2ccccc2)cc1-c1ccccc1)C(=O)O [Example 645]	37

same assay, conditions: at 1 × 10^-7 M

Compound	% inhibition of farnesyltransferase [%]
CSCC[C@H](NC(=O)c1ccc(COCc2ccc(-c3ccc(C(C)=O)cc3)o2)cc1-c1ccccc1C)C(=O)[O-].[Li+] [Example 449]	91
CSCC[C@H](NC(=O)c1ccc(COCc2ccc(-c3ccc(SC)cc3)o2)cc1-c1ccccc1C)C(=O)[O-].[Li+] [Example 447]	91
CSCC[C@H](NC(=O)c1ccc(COCc2ccccc2)cc1-c1ccccc1C)C(=O)NS(=O)(=O)c1ccccc1 [Example 580]	90
CSCC[C@H](NC(=O)c1ccc(CSc2nnc(N)s2)cc1-c1ccccc1C)C(=O)O [Example 734]	49

same assay, conditions: at 1 × 10^-8 M

Compound	% inhibition of farnesyltransferase [%]
CSCC[C@H](NC(=O)c1ccc(COCCc2ccc(Cl)cc2Cl)cc1-c1ccccc1C)C(=O)[O-].[Li+] [Example 591]	82
CSCC[C@H](NC(=O)c1ccc(CO[C@H](CSC)CC2CCCCC2)cc1-c1ccccc1C)C(=O)O [Example 882]	79
CSCC[C@H](NC(=O)c1ccc(COCc2ccc(-c3ccc(C(C)C)cc3)o2)cc1-c1ccccc1C)C(=O)[O-].[Li+] [Example 820]	66

same assay, conditions: at 1 × 10^-8 M; read-out: % inhibition of farnesyltransferase

Compound	inhibition at 0.01 µM [%]
CCCCN(CCc1ccccc1)Cc1ccc(C(=O)N[C@@H](CCSC)C(=O)O)c(-c2ccccc2C)c1 [Example 928, N-[4-(N-Butyl-N-(2-phenylethyl)aminomethyl)-2-(2-methylphenyl)benzoyl]methionine]	84
CCCCS(=O)(=O)N(Cc1ccc(C(=O)N[C@@H](CCSC)C(=O)O)c(-c2ccccc2C)c1)CC1CCCCC1 [Example 996, N-[4-(N-cyclohexylmethyl-N-butanesulfonylaminomethyl)-2-(2-methylphenyl)benzoyl]methionine]	80
CCSC[C@H](CC(C)C)NCc1ccc(C(=O)N[C@@H](CCSC)C(=O)O)c(-c2ccccc2C)c1 [Example 905, N-[4-(N-(1-ethylthio-4-methylpentan-2-yl)aminomethyl)-2-(2-methylphenyl)benzoyl]-methionine]	86
CCSC[C@H](CCc1ccccc1)NCc1ccc(C(=O)N[C@@H](CCSC)C(=O)O)c(-c2ccccc2C)c1 [Example 995]	92
CSCC[C@H](NC(=O)c1ccc(CN(Cc2ccccc2)c2cccc(Cl)c2)cc1-c1ccccc1C)C(=O)O [Example 847, N-[4-N-(N-benzyl-N(3-chlorophenyl)aminomethyl)-2-(2-methylphenyl)benzoyl]methionine lithium salt]	85
